A short description of data set [1]: Systemic delivery study: plasma pharmacokinetics after iontophoretic patch or subcutaneous injection. The note with it: subcutaneous 6 mg; for Cmax / half-life / AUC(0-t): pig, sc; for half-life: read-out: t½ (converted). The format is in vivo, domestic swine. The source says: The purpose of the study was to determine the systemic plasma exposure, absorption characteristics and elimination characteristics of the active agent Dexamethasone sodium phosphate, (DexP) when administered from either a subcutaneous injection or an iontophoretic patch in domestic swine.
The patch is an active (iontophoretic) drug delivery patch which employs a low-level electrical field produced by a novel power source incorporated into the patch to “drive” the drug into the body in a pain-free manner. This system has advantages over passive patches, including more rapid and controlled delivery and the ability to deliver a wider variety of drugs.
The study entailed administration of DexP from three concurrently applied patches delivered at 150 μA, 225 μA and 300 μA over a 9 hour period in 1 male and 1 female domestic swine. Each patch contained a 10 mg/ml Dexamethasone sodium phosphate gel (2% HPMC) in the donor cell compartment, and a 0.9% saline gel (2% HPMC) in the return cell compartment. As a comparator, a subcutaneous 6 mg dose of DexP was delivered to 1 male and 1 female domestic swine. All animals were implanted with a central venous access port (Hickman catheter) prior to administration of the drug and plasma samples were obtained pre-dosing and up to 24 hours after dosing. Samples were analyzed for the presence of dexamethasone phosphate and the data tabulated and selected pharmacokinetic parameters were calculated.

The conditions of data set [2]: iontophoresis of 4 mg/ml solution, charge dosage 40-80 mA-minutes, cited from earlier work.
[3] abbreviates: in vivo, female swine (animal 8P168).
Where [4] appears, read: in vivo, male swine (animal 8P167).

Where two headings read alike, the source gives them in different places.

For `C[C@@H]1C[C@H]2[C@@H]3CCC4=CC(=O)C=C[C@]4(C)[C@@]3(F)[C@@H](O)C[C@]2(C)[C@@]1(O)C(=O)COP(=O)(O)O` [DexP, Dexamethasone sodium phosphate], the Cmax in data set [1] (setting [3]) came out at 27.3 ng/mL; in data set [1] (setting [4]) it was 28.4 ng/mL. In addition, the half-life was 1.5 h in data set [1] (setting [3]) and 0.85 h in data set [1] (setting [4]). In addition, the AUC(0-t) stood at 36.4 ng·h/mL in data set [1] (in vivo, male swine (animal 8P167), read-out: AUC(0-12)) and 60.5 ng·h/mL in data set [1] (plasma, female swine, read-out: AUC(0-14)). Besides, the “AUC(0-12)” value in data set [1] (female swine (animal 8P168)) was found to be 60.5 ng·h/mL.

Turning to `C[C@@H]1C[C@H]2[C@@H]3CCC4=CC(=O)C=C[C@]4(C)[C@@]3(F)[C@@H](O)C[C@]2(C)[C@@]1(O)C(=O)CO` [dexamethasone], the “amount of dexamethasone delivered (highest estimate)” value in data set [2] (J Pharm Compounding 2003) is 1.4 milligrams. For the same molecule, the “amount of dexamethasone delivered (lowest estimate)” value in data set [2] (Petelenz 1992) is on record as 10 micrograms.
